Data published in ChEMBL document CHEMBL1155595, “Inhibition of T-lymphocyte proliferation by cucurbitacins from Picrorhiza scrophulariaeflora” (J Nat Prod, 2000).

Key:
[1] = Inhibition of phytohemagglutininin A-induced T-cell proliferation in human peripheral blood lymphocytes after 4 days by MTT assay; assay type: functional, cell-based; settings: PBL, 96 h
[2] = Cytotoxicity against human peripheral blood lymphocytes assessed as LDH release upto 50 uM after 24 hrs; settings: pbl
[3] = Cytotoxicity against human peripheral blood lymphocytes at <60 uM after 4 days by CFDA/PI labeling assay; settings: pbl, 96 h

Question: Which results are given for `CC(C)(O)/C=C/C(=O)[C@@](C)(O)[C@H]1[C@H](O)C[C@@]2(C)[C@@H]3CC=C4[C@@H](C[C@H](O)[C@H](O)C4(C)C)[C@]3(C)CC[C@]12C` [DEACETYLPICRACIN]?
Answer: IC50 [1]: 1000 nM; Activity [2]: Non-toxic; Activity [3]: < 10%

Question: For `CC(=O)OC(C)(C)/C=C/C(=O)[C@@](C)(O)[C@H]1[C@H](O)C[C@@]2(C)[C@@H]3CC=C4[C@@H](C[C@H](O)[C@H](O)C4(C)C)[C@]3(C)CC[C@]12C` [PICRACIN], which IC50 [1] is on record?
Answer: Its IC50 is 1000 nM.

Question: And the Activity [2]?
Answer: The Activity was “Non-toxic”.

Question: What about the Activity [3] of the same compound?
Answer: The Activity was less than 10%.
